Results taken from US11065235B2, “Substituted methanopyrido [2, 1-a] isoindolones as mAChR modulators for treating various associated pathophysiological conditions and process for preparation thereof” (COUNCIL OF SCIENTIFIC & INDUSTRIAL RESEARCH, priority 2017, dated 2021).
Entries after “also recorded” stand apart in the source; their conditions may differ. Like-named read-outs stand apart in the source and are kept apart here.

Tests used:
[1] = test system: Scopolamine induced memory deficit; test: Novel object recognition (NOR) test, scopolamine induced memory deficit; assay type: in vivo, mice; conditions: RG-02 10 mg/kg i.p. + scopolamine 0.5 mg/kg i.p., 7th day
Description: (§1) All animal experiments and procedures were executed in accordance with the guidelines established in the guide for the care and use of laboratory animals and were approved by the institutional animal ethics committee (IAEC) of CSIR-Central Drug Research Institute, Lucknow, India. In this study, male C57BL/6J mice (6-8 weeks old) weighing 22-25 g were used. They were housed on a 12-h light/dark cycle (lights on at 8.00 am) and food and water were provided ad libitum. Animals were acclimatized to the experimental room 30 minutes prior to the beginning of behavioral procedures. For experimental purpose, animals were randomly divided into four groups: vehicle, RG-02, scopolamine and scopolamine along with RG-02. In scopolamine along with RG-02 group, RG-02 (10 mg/kg, i.p) was injected thirty minutes prior to the scopolamine (0.5 mg/kg, i.p.) injections.
The NOR test was performed according to the protocol introduced by Ennaceur and Delacour (Ennaceur & Delacour, 1988) with slight modification.
The NOR task procedure consisted of three sessions—[…], familiarization and test session. During habituation session, the mouse was placed in an open field (Square box of 40×40×40 cm), facing the wall of the arena, and allowed to explore the entire arena for 10 minutes. Following habituation period of 10 minutes, the mouse was returned to its home cage.
Between every […] session, the whole arena was cleaned with 10% ethanol to reduce olfactory cues. […] During this session, the test animal was placed in the arena and was allowed to explore the entire arena with familiar and novel object, and its activity was also video recorded. To determine the retention of object memory, the recorded videos of test session were analyzed by independent observer who was unknown to treatment of mice to calculate the time spent in exploring both objects. Data are presented as % time of exploration of familiar or novel object, and discrimination index was calculated as per following equation: (Tn−Tf)/Tt: Discrimination Index […]

human M2R = target: T1, human M2R (Homo sapiens, UniProt P08172); test: GloSensor cAMP assay (Gi-mediated cAMP inhibition); assay type: cell-based; conditions: for IC50: agonist
T1 construct: expressed in transfected cells; host or cells: HEK-293T
T1 sequence (P08172 1-466): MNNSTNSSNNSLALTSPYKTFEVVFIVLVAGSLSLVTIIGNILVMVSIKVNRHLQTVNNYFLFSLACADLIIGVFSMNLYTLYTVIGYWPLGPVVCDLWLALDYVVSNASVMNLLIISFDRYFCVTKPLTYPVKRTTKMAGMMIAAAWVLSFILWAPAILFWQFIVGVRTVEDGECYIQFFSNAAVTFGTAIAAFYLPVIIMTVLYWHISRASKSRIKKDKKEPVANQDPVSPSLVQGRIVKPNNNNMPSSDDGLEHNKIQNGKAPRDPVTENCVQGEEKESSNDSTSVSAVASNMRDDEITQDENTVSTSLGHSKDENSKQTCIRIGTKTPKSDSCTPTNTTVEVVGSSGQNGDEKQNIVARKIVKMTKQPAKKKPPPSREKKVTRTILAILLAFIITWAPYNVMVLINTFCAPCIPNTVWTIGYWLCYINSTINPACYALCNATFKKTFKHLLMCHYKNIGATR
Description: To measure M2 muscarinic receptor induced (Gi-mediated) cAMP inhibition, HEK-293T cells (procured from NCCS, Pune) were co-transfected with human M2R and luciferase based cAMP biosensor (pGloSensor™-22F plasmid; Promega) using PEImax method of transfection in the ratio of 1:1. The transfected cells were incubated at 37° C. in tissue culture incubator with 5% CO2 for 14-16 hours. For GloSensor cAMP assay, after overnight incubation, media from the plate was aspirated and 100 μl of sodium luciferin solution in drug buffer (1×HBSS (pH7.4) and 20 mM HEPES) was added to the cell plates. The plates were then incubated at 37° C. in tissue culture incubator with 5% CO2 for 90 minutes. After incubation, cells were treated with 20 μl of 6× diluted standard carbamoyl choline (10000 nM to 0.01 nM) along with test compounds (in triplicates) and were incubated in a humidified tissue culture incubator at 37° C. with 5% CO2 for 10-15 minutes to get a steady state condition. Ligand incubation was followed by addition of 20 μl of 7×(70 μM) forskoline (FSK) to the plate. FSK incubation was followed by incubation at 37° C. for 10-15 minutes and measurement of luminescence per well using luminescence plate reader (BMG Labtech). The results were plotted as inhibition of FSK stimulated cAMP response (relative luminescence units) using nonlinear regression analysis by Graph-Pad prism V.

C57BL/6 mice = test: Locomotor activity in open field arena; assay type: in vivo; conditions: 10 mg/kg i.p., acute, 60 minutes following injection, vs vehicle, p<0.05
Description: as §1
Locomotor activity was tested according to the previously published protocol (Kelly et al, 1998) with slight modifications. Briefly, mice were put in the centre of a clear Plexiglas (40×40×30 cm) open-field arena and were allowed to explore the entire arena for 30 minutes. After 30 minutes of exploration, animals were injected with either RG-02 (10 mg/kg; i.p.) or 0.9% normal saline and were allowed to explore the arena for further 60 minutes. […]

[2] = test system: Scopolamine induced memory deficit; test: Morris water maze (MWM) test, scopolamine induced learning deficit; assay type: in vivo, mice
Description: as §1
The Morris water maze (MWM) test was performed according to Morris 1984, with slight modifications. Circular pool of dimensions-100 cm diameter and 45 cm depth, which was filled up to 25 cm from bottom with white colour water. Temperature of water was adjusted to 24-25° C. Pool was divided into four quadrants and a square platform of 10×10 cm in was placed into the tank at a fixed location in the centre of one of the four imaginary quadrants. Training sessions were conducted for 3 consecutive days and on 4th day a probe trial was performed. During training session, mouse was gently placed into the water facing the edge of the pool of one of the quadrant. If the mouse was able to find the platform before the 60 sec cut-off, it was allowed to stay over the platform for 5 more seconds followed by returning to its home cage. […] Total three trials/day were run for each mouse with minimum interval of 10-15 minutes between two trials, and latency to reach the platform was calculated. On the fourth day, for the probe trial, the platform was removed and the time spent in respective quadrant was calculated.

human M5R = target: T2, human M5R (Homo sapiens, UniProt P08912); test: NFAT-luciferase assay, M5; assay type: cell-based
T2 construct: expressed in transfected cells; host or cells: HEK-293T
T2 sequence (P08912 1-532): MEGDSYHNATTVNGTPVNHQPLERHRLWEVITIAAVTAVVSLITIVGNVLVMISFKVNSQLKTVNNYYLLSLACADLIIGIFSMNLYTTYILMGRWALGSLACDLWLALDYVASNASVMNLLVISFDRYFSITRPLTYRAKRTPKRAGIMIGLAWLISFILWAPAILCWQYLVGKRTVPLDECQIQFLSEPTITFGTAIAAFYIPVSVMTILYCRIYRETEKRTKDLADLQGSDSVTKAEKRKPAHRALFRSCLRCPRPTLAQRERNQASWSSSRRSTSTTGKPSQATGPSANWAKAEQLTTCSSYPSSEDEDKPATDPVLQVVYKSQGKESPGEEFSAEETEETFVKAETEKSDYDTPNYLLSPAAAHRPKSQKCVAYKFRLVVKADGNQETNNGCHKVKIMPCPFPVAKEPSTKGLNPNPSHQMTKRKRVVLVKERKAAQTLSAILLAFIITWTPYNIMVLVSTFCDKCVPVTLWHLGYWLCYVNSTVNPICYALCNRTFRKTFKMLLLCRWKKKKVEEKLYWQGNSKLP
Description: (§2) To measure the agonist or antagonist activity at M1, M3 and M5 muscarinic receptor, NFAT-luciferase activity was performed in HEK-293T cells (procured from NCCS, Pune) by co-transfecting with human M1R or M3R or M5R and pGL4.30 (luc2P/NFAT-RE/Hygro; Promega Corp,) in 96 well format. The transfected cells were incubated at 37° C. in tissue culture incubator with 5% CO2 for 14-16 hours. To determine the if the test compounds are agonist, the transfected cells were treated with either 20 μl/well of carbamoyl choline (as a positive control) at various concentrations (10000 nM to 0.01 nM) or with various concentrations of test compounds (in triplicates) and were further incubated for 12 hrs in a humidified tissue culture incubator at 37° C. with 5% CO2. For antagonist mode assay, test compound incubation was followed by addition of 20 μl of 7 μM carbamoylcholine (agonist) to the plate. Following 12-14 hrs of drug treatment, media from the plate was aspirated and 100 μl of sodium luciferin solution (10 mg/ml) was added and luminescence per well was recorded using luminescence plate reader (BMG Labtech).

human M1R = target: T3, human M1R (Homo sapiens, UniProt P11229); test: NFAT-luciferase assay, M1; assay type: cell-based
T3 construct: expressed in transfected cells; host or cells: HEK-293T
T3 sequence (P11229 1-460): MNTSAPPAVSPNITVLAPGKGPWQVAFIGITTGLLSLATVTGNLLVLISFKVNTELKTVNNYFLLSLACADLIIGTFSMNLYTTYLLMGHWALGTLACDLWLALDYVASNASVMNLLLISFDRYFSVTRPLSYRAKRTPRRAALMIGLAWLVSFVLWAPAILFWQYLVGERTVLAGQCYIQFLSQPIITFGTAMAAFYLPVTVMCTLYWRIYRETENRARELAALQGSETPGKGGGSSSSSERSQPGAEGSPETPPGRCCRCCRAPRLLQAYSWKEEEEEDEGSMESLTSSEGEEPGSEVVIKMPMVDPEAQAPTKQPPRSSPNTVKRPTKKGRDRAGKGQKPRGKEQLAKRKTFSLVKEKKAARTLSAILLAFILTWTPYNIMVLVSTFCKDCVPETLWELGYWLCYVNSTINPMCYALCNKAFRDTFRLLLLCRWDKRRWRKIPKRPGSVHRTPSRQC
Description: as §2

human M3R = target: T4, human M3R (Homo sapiens, UniProt P20309); test: NFAT-luciferase assay, M3; assay type: cell-based
T4 construct: expressed in transfected cells; host or cells: HEK-293T
Description: as §2

T4 sequence (P20309 whole entry): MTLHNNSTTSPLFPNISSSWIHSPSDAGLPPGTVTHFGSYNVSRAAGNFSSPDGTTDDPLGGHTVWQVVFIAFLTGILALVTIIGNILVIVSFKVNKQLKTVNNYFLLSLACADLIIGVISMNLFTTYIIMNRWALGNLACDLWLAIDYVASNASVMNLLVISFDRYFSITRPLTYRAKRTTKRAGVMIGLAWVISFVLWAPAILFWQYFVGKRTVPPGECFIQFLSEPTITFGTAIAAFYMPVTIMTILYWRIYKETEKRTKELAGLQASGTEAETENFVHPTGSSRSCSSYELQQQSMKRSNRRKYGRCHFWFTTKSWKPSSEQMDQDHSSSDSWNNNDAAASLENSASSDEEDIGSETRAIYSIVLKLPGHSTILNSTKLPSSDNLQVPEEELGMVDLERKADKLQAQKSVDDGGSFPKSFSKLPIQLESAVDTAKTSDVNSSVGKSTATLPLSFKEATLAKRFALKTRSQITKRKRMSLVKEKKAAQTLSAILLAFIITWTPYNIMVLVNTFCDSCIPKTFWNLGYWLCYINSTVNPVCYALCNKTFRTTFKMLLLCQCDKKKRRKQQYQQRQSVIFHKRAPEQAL

O=C1CCC[C@@H]2[C@@H]1C[C@@]1(S(=O)(=O)c3ccccc3)C(=O)[C@@H]3c4ccccc4[C@H]1N32 [RG-02, (4aS,6S,6aR,11S,12aR)-6-(phenylsulfonyl)-1,2,3,4a,5,6,6a,12a-octahydro-6,11-methanoisoindolo[2,1-a]quinoline-4,13(11H)-dione]
percent time exploration for novel object ([1]; vs scopolamine alone / vehicle): significantly increased | novel object discrimination index ([1]; vs scopolamine alone, p<0.05): significantly blocked the negative effect of scopolamine on novel object discrimination; also recorded: significantly increased | agonist activity at M2 receptor (in words) (human M2R): most potent agonist at M2 receptor; also recorded: selective M2 muscarinic receptor agonist with high activity | IC50 (human M2R; M2, N.A. = not active, read-out: pIC50/pEC50 (Mean ± SEM) M2 (converted)): 4.17 nM | IC50 (human M2R; read-out: IC50 at M2 receptor): 4 nM | locomotor activity (total horizontal distance travelled) (C57BL/6 mice): significantly increased locomotor activity; also recorded: neurostimulatory effect; also recorded: significant increase in locomotor activity | time spent in platform quadrant (probe trial) ([2]; RG-02 10 mg/kg i.p. + scopolamine 0.5 mg/kg i.p., day 4, vs scopolamine alone): increased the time spent in the quadrant with platform; also recorded: significantly increased | learning the location of hidden platform ([2]; RG-02 alone 10 mg/kg i.p., vs vehicle): no per se effect

O=C1[C@@H]2c3ccccc3[C@H]3N2[C@@H]2CCCC(OS(=O)(=O)C(F)(F)F)=C2C[C@@]13S(=O)(=O)c1ccccc1 [RG-12, (6S,6aR,11S,12aR)-13-oxo-6-(phenylsulfonyl)-1,2,3,5,6,6a,11,12a-octahydro-6,11-methanoisoindolo[2,1-a]quinolin-4-yl trifluoromethanesulfonate]
antagonist activity at M5 receptor (in words) (human M5R): very modest activity | IC50 (human M5R; M5, antagonist, N.A. = not active, read-out: pIC50/pEC50 (Mean ± SEM) M5 (converted)): 269 nM | antagonist activity at M1 receptor (in words) (human M1R): very modest activity | IC50 (human M1R; M1, antagonist, N.A. = not active, read-out: pIC50/pEC50 (Mean ± SEM) M1 (converted)): 129 nM | antagonist activity at M3 receptor (in words) (human M3R): very modest activity | selectivity among muscarinic receptors (in words) (human M3R; M1, M3 and M5 antagonist profiling): nonselective muscarinic receptor antagonist
